# Measurements published in patent publication US20200188319A1, “Use Of Inhaled Nitric Oxide For The Treatment Of Pulmonary Hypertension Associated With Lung Disease” (Bellerophon Pulse Technologies LLC, priority 2017, published 2020).
# Where “and” joins values, the source holds several entries; their conditions need not be identical. Equal values may be shown once. Read-outs that look alike come from different tables or passages of the source.
# Assays:
# PH-COPD subjects [1] = test: Chronic iNO: sPAP by echocardiogram in PH-COPD subjects; type: in vivo, human; settings: group value, FIG. 11
# Excerpt: (§1) This study is an open label Phase 1 study of iNO therapy in subjects with PH-COPD (PULSE-COPD-007; NCT03135860). The primary outcome of this study is the change in lobar blood volume at total lung capacity with iNO and the change in lobar blood volume with iNO after 4 weeks of treatment with iNO as measured by HRCT.
# (§2) Subjects also had sPAP≥38 mm Hg as measured by echocardiogram, a post-bronchodilatory FEV1/FVC<0.7 and a FEV1<60% predicted. All subjects were at least 40 years old and were current or former smokers with at least 10 pack-years of tobacco cigarette smoking before study entry. All subjects also had been receiving LTOT for at least 3 months for at least 10 hours per day.
# (§3) The PH-COPD subjects received pulsed iNO therapy for 4 weeks for at least 12 hours/day. The iNO was administered utilizing a 4,880 ppm NO cylinder concentration.
# (§4) A further analysis was performed of seven PH-COPD subjects that completed 4 weeks of treatment with iNO at a dose of 30 mcg/kg IBW/hr. The 6MWD and sPAP results are also presented in FIGS. 10 and 11, respectively.
# As shown in FIG. 10, the change in 6MWD after 2 weeks of iNO therapy is +53.9 meters (p=0.02). Similarly, the change in 6MWD after 4 weeks of iNO therapy is +50.7 meters (p=0.04). In the literature, 27-54 meter improvements in 6MWD are considered clinically significant as measured by patient perceptions of improvement.
# PH-IPF subjects [2] = test: Acute iNO: blood vessel volume by HRCT in PH-IPF subjects on LTOT; type: in vivo, human
# Excerpt: This study was an exploratory, three-part, clinical study to assess the effect of pulsed iNO on functional pulmonary imaging parameters in subjects with PH-COPD on LTOT (Part 1) PH-IPF on LTOT (Part 2 and Part 3) (IK-7002-COPD-006; NCT02267655). The objective of this exploratory study was to examine the utility of high resolution computed tomography (HRCT) to measure changes in functional respiratory imaging parameters as a function of short term iNO administration using a pulsed NO delivery device in subjects with PH-IPF (Part 2 and Part 3) on LTOT. The primary endpoint in this exploratory study is the change from baseline in lobar blood volume at total lung capacity (TLC) after dosing with pulsed iNO (Part 1), iNO or Placebo (Part 2a) and after 4 weeks iNO treatment (Part 3b) as measured by HRCT.
# This was an exploratory clinical study to evaluated the utility of HRCT to measure the pharmacodynamic effects of short term pulsed administration of iNO using a pulsed NO delivery device in subjects with PH-IPF (Part 2 and Part 3) on LTOT.
# (§5) The 2 subjects enrolled in Part 2 were randomly assigned for Part 2a to 1 of 2 sequences to receive iNO utilizing the NO cylinder concentration (4,880 ppm) at a dose of 75 mcg/kg IBW/hr or placebo set at a dose of 75 mcg/kg IBW/hr.
# (§6) The 2 subjects enrolled in Part 3a each received three different doses of iNO utilizing NO cylinder concentration (4,880 ppm) at a dose of 5 mcg/kg IBW/hr, 10 mcg/kg IBW/hr and 30 mcg/kg IBW/hr, all with LTOT. For each dose, the change in PAP pressure and the change in cardiac output was evaluated by RHC. The investigator could decide after each dose to continue with the following dose or not.
# (§7) […], the vasodilation and the hemodynamics were assessed. During the chronic phase, the focus was exercise capacity. Oxygen saturation during exercise was evaluated both at baseline as well as after 4 weeks of chronic treatment with iNO. Both the acute and chronic phases evaluated iNO doses of 30 and 75 mcg/kg IBW/hr.
# PH-COPD subjects [3] = test: Chronic iNO: six-minute walk distance (6MWD) in PH-COPD subjects; type: in vivo, human; settings: seven PH-COPD subjects, group value, iNO 30 mcg/kg/IBW, FIG. 10
# Excerpt: Oxygen saturation can be measured before, during or after tests that assess exercise capacity. One approach to assess exercise capacity is the six-minute walk test, which provides the 6MWD. Other measurements that can be used to assess exercise capacity include, but are not limited to, shuttle walk test, activity level, forced exercise, maximal exercise test, treadmill, bicycle and cardiopulmonary exercise test.
# as §1, §2, §3
# A further analysis was performed of seven PH-COPD subjects that completed 4 weeks of treatment with iNO at a dose of 30 mcg/kg IBW/hr. […]
# PH-IPF subjects [4] = test: Chronic iNO: SpO2 during 6MWT in PH-IPF subjects; type: in vivo, human; settings: during exercise (6MWT)
# Excerpt: The secondary endpoints of Part 2b (chronic dosing) were change in 6MWT with Borg CR10 leg fatigue and dyspnea scale and SpO2, at the beginning and end of the 6MWT and symptoms evaluated using a questionnaire with after 4 weeks use of iNO at a dose of 75 mcg/kg IBW/hr and 2 weeks post discontinuation of iNO.
# The secondary endpoints of Part 3b (chronic dosing) were change in 6MWT with Borg CR10 leg fatigue and dyspnea scale and SpO2, at the beginning and end of the 6MWT and symptoms evaluated using a questionnaire after 4 weeks use of iNO at a dose of 30 mcg/kg IBW/hr.
# In Part 2b and Part 3b change in 6MWT with Borg CR10 leg fatigue and dyspnea scale and SpO2, at the beginning and end of the 6MWT, and a symptoms questionnaire were used to assess the effects of long term pulsed iNO administered using a pulsed NO delivery device in subjects with PH associated with IPF on LTOT.
# (§8) One patient from Part 2a entered into Part 2b. During Part 2b patient receive iNO utilizing NO cylinder concentration (4,880 ppm) at a dose of 75 mcg/kg IBW/hr during 4 weeks for at least 12 hours/day.
# (§9) The 2 patients from Part 3a entered Part 3b. During Part 3b, patients received iNO utilizing NO cylinder concentration (4,880 ppm) at a dose of 30 mcg/kg IBW/hr.
# as §7
# PH-COPD subjects [5] = test: Chronic iNO: TAPSE in PH-COPD subjects; type: in vivo, human
# Excerpt: (§10) One or more embodiments of the present invention also relate to maintaining and/or improving right ventricular (RV) function using long-term iNO therapy. Maintenance and/or improvements in RV function can be assessed by many echocardiographic measurements. One such quantitative approach to assess RV function is the measurement of the tricuspid annular plane systolic excursion (TAPSE). The TAPSE estimates RV systolic function by measuring the level of systolic excursion of the lateral tricuspid valve annulus towards the apex. An excellent correlation between the TAPSE and RV ejection fraction as assessed by radionuclide angiography has previously been established and the approach appears reproducible and proven to be a strong predictor of prognosis in heart failure. [Reference: Heart. 2006 April; 92(Suppl 1): i19-i26.]
# as §1, §2, §3
# These subjects were diagnosed with PH-COPD and received 4 weeks of treatment with iNO at a dose of 30 mcg/kg IBW/hr. The results verify the increase in TAPSE which correlates to RV function.
# PH-IPF subjects [6] = test: Chronic iNO: TAPSE (RV function) in PH-IPF subjects; type: in vivo, human
# Excerpt: as §10, §8, §9
# Subject 1 received pulsed iNO at a dose of 75 mcg/kg IBW/hr for 4 weeks, and Subject 3 received pulsed iNO at a dose of 30 mcg/kg IBW/hr for 4 weeks.
# PH-COPD subjects [7] = test: Acute iNO: blood vessel volume by HRCT in PH-COPD subjects; type: in vivo, human; settings: acute assessment
# Excerpt: as §1, §2, §4
# [8] = system: pulmonary arterial hypertension (PAH); settings: cited from earlier work
# PH-IPF subjects [9] = test: Acute iNO: sPAP in PH-IPF subjects; type: in vivo, human
# Excerpt: In Part 2 of the study the subjects needed to have severe PH, therefore PH in Part 2 was defined as sPAP≥50 mm Hg by 2-D echocardiogram. In Part 3 PH was defined as sPAP≥35 mm Hg by echocardiogram (Part 3).
# as §5, §6, §7
# PH-IPF subjects [10] = test: Safety of iNO dose in PH-IPF subjects (PAP, RHC-monitored titration); type: in vivo, human
# Description: The safety endpoints in this study were: • 1. Incidence and severity of treatment emergent adverse events (AEs), including those related to device deficiency; • 2. Incidence of MetHb levels >7.0%; • 3. New symptoms that may be due to rebound PH associated with a temporal acute withdrawal of investigational study drug (i.e., symptoms occurring within 20 minutes of acute withdrawal and including those associated with investigational medical device malfunction or failure): systemic arterial oxygen desaturation, hypoxemia, bradycardia, tachycardia, systemic hypotension, near-syncope, syncope, ventricular fibrillation, and/or cardiac arrest; • 4. New or worsening symptoms of left heart failure or pulmonary edema; and • 5. Any decrease in systemic oxygenation measured by oxygen saturation of arterial blood by pulse oximetry (SpO2), i.e., hypoxia or oxygen saturation decrease, deemed by the Investigator to be clinically significant.
# The initial protocol intended that 4 subjects would be enrolled in Part 2. […] It was decided to temporarily stop recruitment. One of the 2 subjects completed 4 weeks of chronic use in Part 2b.
# In the amendment a total of 2 subjects participated in Part 3. The dose in Part 3 was lower than in Part 2 and each subject was titrated to the optimum dose as determined by the investigator. […] The dose was monitored with a RHC in place. […]
# [11] = iNO 30 mcg/kg IBW/hr, PH-IPF Patients 3 and 4
# [12] = Average of four PH-COPD subjects, iNO 30 mcg/kg IBW/hr for 4 weeks
# [13] = Average of PH-IPF Subjects 1 (75) and 3 (30 mcg/kg IBW/hr), 4 weeks
# [14] = PH-IPF Subject 1, pulsed iNO 75 mcg/kg IBW/hr for 4 weeks
# [15] = PH-IPF Subject 3, pulsed iNO 30 mcg/kg IBW/hr for 4 weeks
compound,measurement,setting,value
"[N]=O [iNO, nitric oxide]",sPAP 4 weeks after iNO therapy was discontinued,PH-COPD subjects [1]; PH-COPD subjects,58.0 mm Hg
same,sPAP after 4 weeks of iNO therapy,"PH-COPD subjects [1]; seven PH-COPD subjects, iNO 30 mcg/kg IBW/hr, baseline 60.3 mm Hg, p=0.02",48.3 mm Hg
same,Acute change in blood vessel volume (%),PH-IPF subjects [2]; [11],2.8 ± 3.0% and 10.1 ± 3.4%
same,regional vasodilation in the lungs (targeting),"PH-IPF subjects [2]; iNO 30 mcg/kg IBW/hr, Patients 3 & 4, FIGS. 7 and 8",clear targeting of the drug
same,overall vasodilation,"PH-IPF subjects [2]; iNO 30 mcg/kg IBW/hr, range over Patients 3 & 4",2.8-10.1%
same,regional vasodilation in the lungs (targeting),"PH-IPF subjects [2]; iNO 75 mcg/kg IBW/hr, Patients 1 & 2, FIGS. 5 and 6",little to no targeted vasodilation
same,overall vasodilation,"PH-IPF subjects [2]; iNO 75 mcg/kg IBW/hr, range over Patients 1 & 2",14.2-34.2%
same,change in 6MWD after 2 weeks of iNO therapy,PH-COPD subjects [3]; p=0.02,+53.9 meters
same,change in 6MWD after 4 weeks of iNO therapy,PH-COPD subjects [3]; p=0.04,+50.7 meters
same,SpO2 Nadir,"PH-IPF subjects [4]; 4 Weeks iNO 30 mcg/kg IBW/hr, Patient 3, baseline 83",89
same,SpO2 Average,"PH-IPF subjects [4]; 4 Weeks iNO 30 mcg/kg IBW/hr, Patient 3, baseline 88.9",95.7
same,SpO2 Nadir,"PH-IPF subjects [4]; 4 Weeks iNO 75 mcg/kg IBW/hr, Patient 1, baseline 76",79
same,SpO2 Average,"PH-IPF subjects [4]; 4 Weeks iNO 75 mcg/kg IBW/hr, Patient 1, baseline 89.4",86.6
same,"TAPSE % Change, Average",PH-COPD subjects [5]; [12],25%
same,"TAPSE Increase, Average",PH-COPD subjects [5]; [12],4
same,"TAPSE 4 Week, Average","PH-COPD subjects [5]; Average of four PH-COPD subjects, iNO 30 mcg/kg IBW/hr for 4 weeks, baseline 16",20
same,TAPSE after iNO therapy was discontinued,"PH-COPD subjects [5]; PH-COPD subjects, N=5, FIG. 12",19.0
same,TAPSE after chronic iNO therapy,"PH-COPD subjects [5]; PH-COPD subjects, N=7, baseline 18.8 (N=6), FIG. 12",21.3
same,"TAPSE % Change, Average",PH-IPF subjects [6]; [13],15%
same,"TAPSE Increase, Average",PH-IPF subjects [6]; [13],3
same,"TAPSE 4 Week, Average","PH-IPF subjects [6]; Average of PH-IPF Subjects 1 (75) and 3 (30 mcg/kg IBW/hr), 4 weeks, baseline 20",23
same,TAPSE % Change,PH-IPF subjects [6]; [14],21%
same,TAPSE Increase,PH-IPF subjects [6]; [14],3
same,TAPSE 4 Week,"PH-IPF subjects [6]; PH-IPF Subject 1, pulsed iNO 75 mcg/kg IBW/hr for 4 weeks, baseline 14",17
same,TAPSE % Change,PH-IPF subjects [6]; [15],12%
same,TAPSE Increase,PH-IPF subjects [6]; [15],4
same,TAPSE 4 Week,"PH-IPF subjects [6]; PH-IPF Subject 3, pulsed iNO 30 mcg/kg IBW/hr for 4 weeks, baseline 25",28
same,ventilation-vasodilation correlation,"PH-COPD subjects [7]; PH-COPD subjects, p=0.03, FIG. 9",significant
same,increase in blood vessel volume on iNO (average),"PH-COPD subjects [7]; nine PH-COPD subjects, statistically significant",4.2%
same,efficacy for the treatment of PAH,"[8]; iNO dose 25 mcg/kg IBW/hr, same previous clinical study",inefficacious
same,efficacy for the treatment of PAH,"[8]; iNO dose 75 mcg/kg IBW/hr, previous clinical study",effective
same,Acute Change in sPAP (%),PH-IPF subjects [9]; [11],−14.3% and −23.3%
same,Acute Change in sPAP (%),"PH-IPF subjects [9]; iNO 75 mcg/kg IBW/hr, PH-IPF Patients 1 and 2",−9.3% and −9.7%
same,PAP after discontinuation of iNO,"PH-IPF subjects [10]; iNO 75 mcg/kg IBW/hr, the two IPF patients of Part 2",sudden increase in PAP after discontinuation
same,dose titration monitored with RHC,"PH-IPF subjects [10]; iNO titrated to 30 mcg/kg IBW/hr, 2 subjects of Part 3",safely
